Assay results as given in PMC6834594, “Structure and regulation of ZCCHC4 in m^6A-methylation of 28S rRNA” (Nature Communications, 2019).
Where a chain is given by its changes, count along the chain named. Each block holds one molecule with its values, some of them ahead of it.

Assays:
ZCCHC4_24-513 [1] = target: T1, ZCCHC4_24-513 (Homo sapiens, UniProt Q9H5U6); experiment: isothermal titration calorimetry; type: binding
T1 construct: gene ZCCHC4; residues 24-513; His6-SUMO tag cleaved by ULP1; E. coli BL21(DE3) RIL; monomer in solution
T1 sequence (Q9H5U6 24-513): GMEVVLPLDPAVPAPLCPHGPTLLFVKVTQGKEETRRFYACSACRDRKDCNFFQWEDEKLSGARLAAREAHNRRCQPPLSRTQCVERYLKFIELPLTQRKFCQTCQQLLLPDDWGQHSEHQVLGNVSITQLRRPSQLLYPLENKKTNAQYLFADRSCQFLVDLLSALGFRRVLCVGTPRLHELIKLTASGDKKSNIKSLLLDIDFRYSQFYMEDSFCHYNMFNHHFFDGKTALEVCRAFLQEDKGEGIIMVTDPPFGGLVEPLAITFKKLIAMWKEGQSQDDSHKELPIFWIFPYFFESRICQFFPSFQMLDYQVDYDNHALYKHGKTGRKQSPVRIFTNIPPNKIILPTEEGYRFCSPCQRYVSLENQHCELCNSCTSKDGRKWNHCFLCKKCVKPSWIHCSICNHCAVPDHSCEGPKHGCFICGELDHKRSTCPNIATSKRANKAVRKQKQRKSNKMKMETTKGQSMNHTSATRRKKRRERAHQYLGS

ZCCHC4_24-513 [2] = target: T2, ZCCHC4_24-513 (Homo sapiens, UniProt Q9H5U6, H343A); experiment: isothermal titration calorimetry; type: binding
T2 construct: gene ZCCHC4; residues 24-513; His6-SUMO tag cleaved by ULP1; E. coli BL21(DE3) RIL; monomer in solution
T2 sequence (Q9H5U6 24-513 H343A): T1 sequence (Q9H5U6 24-513) with H320A

ZCCHC4_24-464 = target: T3, ZCCHC4_24-464 (Homo sapiens, UniProt Q9H5U6, K55A/E56A/E57A/K167A/K168A); experiment: X-ray crystal structure, […] Å; type: binding; conditions: cofactor pocket of the MTase domain; no RNA
T3 construct: gene ZCCHC4; core fragment, residues 24-464, five surface mutations for crystallization; His6-SUMO tag cleaved by ULP1; E. coli BL21(DE3) RIL
T3 sequence (Q9H5U6 24-464 K55A/E56A/E57A/K167A/K168A): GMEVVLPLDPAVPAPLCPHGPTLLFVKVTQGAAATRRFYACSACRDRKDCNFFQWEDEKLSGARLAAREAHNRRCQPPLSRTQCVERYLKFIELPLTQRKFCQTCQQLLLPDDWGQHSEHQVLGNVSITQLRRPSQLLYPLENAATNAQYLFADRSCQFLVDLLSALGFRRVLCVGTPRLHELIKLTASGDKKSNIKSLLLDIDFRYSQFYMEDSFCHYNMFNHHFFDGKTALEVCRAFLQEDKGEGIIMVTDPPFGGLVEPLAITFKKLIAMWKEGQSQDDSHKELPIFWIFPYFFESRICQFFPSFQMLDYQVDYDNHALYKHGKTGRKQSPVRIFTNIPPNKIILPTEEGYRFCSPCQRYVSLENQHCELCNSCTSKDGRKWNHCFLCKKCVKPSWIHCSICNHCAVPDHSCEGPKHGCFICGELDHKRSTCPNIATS

ZCCHC4 24-464 WT (core) = target: T4, ZCCHC4 24-464 WT (core) (human, UniProt Q9H5U6 24-464); experiment: EMSA; EMSA: 20 mM Tris-HCl pH 7.5, 100 mM NaCl, 5% glycerol, 1 mM DTT, 4 C, 1 h; 0.3 uM RNA with 0-1.2 uM protein unless noted; 6% TBE native gel; conditions: protein: recombinant; tags: His6-SUMO removed by ULP1; label: none (SYBR Gold stain); stem-loop with tail
T4 sequence: T3 sequence (Q9H5U6 24-464 K55A/E56A/E57A/K167A/K168A) with A32K, A33E, A34E, A144K, A145K

- Kd (ZCCHC4_24-513 [1]): 6.7 µM
- Kd (ZCCHC4_24-513 [2]): 1.6 µM
Molecule: C[S+](CC[C@H](N)C(=O)O)C[C@H]1O[C@@H](n2cnc3c(N)ncnc32)[C@H](O)[C@@H]1O (stereo partly shown) [SAM]

Molecule: Nc1ncnc2c1ncn2[C@@H]1O[C@H](CSCC[C@H](N)C(=O)O)[C@@H](O)[C@H]1O [SAH]
- X-ray crystal structure, 3.1 Å (ZCCHC4_24-464): in complex with S-adenosyl-L-homocysteine (SAH)

Molecule: CGGUACACCUGUCAAACGGUAACGCAGGUG (structured_RNA) [30-mer 28S rRNA]
- binding result (ZCCHC4 24-464 WT (core)): binds
